Laboratory results from patent US9592237B2, “Use of CB1 antagonists and/or inverse agonists for the preparation of drugs that increase motor neuron excitability” (Fundacion Del Hospital Nacional De Paraplejicos Para La …, priority 2009, dated 2017).

Key:
Male adult Wistar rats = test: Forced run on conveyer belt (fatigue), uninjured rats; type: in vivo, rat; details: 0.25 mg/Kg intraperitoneal; for effect on latency (Δ latency) in forced run: after injection, compared with carrier, result in words; for improvement in resistance to fatigue (decrease in latency) with respect to carrier: single injection, average
Protocol: (§1) Animals. Male adult Wistar rats were used (300-350 g; 12 weeks old), obtained from Harlan-Interfauna Ibérica (Barcelona, Spain) kept in our animal house in a light:dark cycle of 12:12 hours, receiving food and water ad libitum. The animals were handled in accordance with the guides published in the “NIH Guide for the Care and Use of Laboratory Animals”, the principles covered by the “Guidelines for the Use of Animals in Neuroscience Research” published by the American Neuroscience Society, and the European Union Guidelines (Directive 86/609/EEC). The rats were assigned to the groups with injection of carrier or the CB1 antagonists/inverse agonists (rimonabant (SR141716A) or AM281). Five uninjured animals and 3 injured animals were used for each group.
(§2) The rats were acclimatized to the conveyer belt making them walk on the belt at low speed. The forced run protocol consisted of a first session of 15 minutes run (20 m/min, 5% inclination) followed by a second session 2 hours later (Fatigue 2 h). The same protocol was repeated the following day to study the continuance of the effects observed with the treatment (Fatigue 24 h). In order to keep the rats running throughout the study, mild electric shock was used (20 mV, 1.67 Hz) and, possible, gentle touches by the experimenter's hand. The drugs were administered immediately after the first session of the first day. The treatments consisted of a single intraperitoneal injection of SR141716A (0.25 mg/Kg), or AM281 (0.25 mg/Kg), or carrier (2.5% Bovine Serum Albumin, SIGMA, Spain, in 0.9% NaCl).
Latency was defined as the number of seconds during the experiment where the animals touched the grille located at the end of the conveyer belt. The animals that remained more than twice at the electric grille receiving discharges of over 10 seconds were considered exhausted and were returned to their cages. In this case, latency time was also considered the remaining time until the end of the protocol. The latency increase (αlatency) was calculated as the difference between the action of the rat at each time minus the values of the first session. Therefore, the negative measurements reflect a decrease in latency, and, therefore, an improvement in motor capacity.

healthy volunteers [1] = test: Motor thresholds by transcranial magnetic stimulation (TMS), first dorsal interosseous; type: in vivo, human; details: % of maximum stimulator output, 24 hours after single dose of 20 mg, ±SD
Protocol: (§3) The objective of the present experiments was to use transcranial magnetic and electric stimulation to test the effects of a single dose of 20 mg of rimonabant in motor cortex and spinal motor neuron excitability.
(§4) A neurophysiological examination was carried out before and 24 hours after administration of a single dose of 20 mg of rimonabant.
(§5) Using transcranial magnetic stimulation (TMS) we evaluate the electromyographic response thresholds in the first dorsal interosseous (FDI) at rest and during voluntary contraction. Using transcranial electric stimulation (TES) we evaluate the electromyographic response thresholds in the first dorsal interosseous during voluntary contraction. Transcranial electric stimulation tends to activate the axons of the corticospinal neurons in the white matter whilst magnetic stimulation activates the same fibres trans-synaptically (Hallett, 2000 Jul. 13, 406 (6792):147-50). Therefore, the response evoked electrically are not as sensitive to changes in cortical excitability as those evoked by magnetic stimulation. We also evaluate short-latency intracortical facilitation (ICF). ICF was studied using the technique of Kujirai et al. (J Physiol. 1993 Nov; 471:501-19). […]

healthy volunteers [2] = test: Active motor threshold by transcranial electric stimulation (TES); type: in vivo, human; details: % of maximum stimulator output; 24 hours after single dose of 20 mg; six subjects; baseline 19.6±6%; P=0.0164; ±SD
Protocol: as §3, §4
Using transcranial magnetic stimulation (TMS) we evaluate the electromyographic response thresholds in the first dorsal interosseous (FDI) at rest and during voluntary contraction. Using transcranial electric stimulation (TES) we evaluate the electromyographic response thresholds in the first dorsal interosseous during voluntary contraction. Transcranial electric stimulation tends to activate the axons of the corticospinal neurons in the white matter whilst magnetic stimulation activates the same fibres trans-synaptically (Hallett, 2000 Jul. 13, 406 (6792):147-50). Therefore, the response evoked electrically are not as sensitive to changes in cortical excitability as those evoked by magnetic stimulation. We also evaluate short-latency intracortical facilitation (ICF). ICF was studied using the technique of Kujirai et al. (J Physiol. 1993 Nov; 471:501-19).
In six subjects we also performed electric stimulation of the motor cortex during voluntary contraction. This was performed with a Digitimer D180A digital stimulator with a time constant of 50 μs. […]

healthy volunteers [3] = test: Intracortical facilitation (ICF), paired-pulse TMS; type: in vivo, human; details: % of response to test stimulus without conditioning stimulus; 24 hours after single dose of 20 mg; baseline 117±21%; P=0.0212; ±SD
Protocol: as §4, §5
The response facilitation conditional upon the three different ISIs studied was then averaged to give a magnified average value. The amplitude of the motor evoked potentials was expressed as percentages of amplitude of the motor evoked potentials of the tests. […]

[4] = system: rats with moderate spinal cord lesion; test: Modified forced run on conveyer belt, rats with moderate spinal cord lesion; type: in vivo, rat; details: 0.25 mg/Kg intraperitoneal; for improvement in resistance to fatigue (decrease in latency) with respect to carrier: 7 days after lesion, average
Protocol: as §1
as §2, with “The treatments consisted of a single intraperitoneal injection of SR141716A (0.25 mg/Kg), or AM281 (0.25 mg/Kg), or carrier (2.5% Bovine Serum Albumin, SIGMA, Spain, in 0.9% NaCl).” left out
Latency was defined as the number of seconds during the experiment where the animals touched the grille located at the end of the conveyer belt. […] The latency increase (αlatency) was calculated as the difference between the action of the rat at each time minus the values of the first session. […]
6 animals were subjected to a moderate spinal cord lesion by, using the “Infinite Horizon” motorized system (Precision Systems & Instrumentation, [PSI], Lexington, Ky.). […] The hydration state was monitored as was the presence of possible infections in the animals until the end of the experiment. […]

healthy volunteers [5] = test: Adverse effects observed in subjects of the stimulation study; type: in vivo, human; details: single dose of 20 mg
Protocol: as §4
Nine healthy volunteers (average age±S.D 32.1±5.8 years) participated in the experiments using TMS (transcranial magnetic stimulation) and six participated in the experiments with electric stimulation. All subjects gave their informed written consent. The study was developed in accordance with the Declaration of Helsinki and approved by the Local Ethics Committee. The magnetic stimulation was developed using two Magstim 200 high-power magnetic stimulators (Magstim Co., Whitland, UK) connected to the Bistim Module during all measurements. A figure of 8 shaped coil was placed with an external diameter of 9 cm on the right motor cortex, in optimal position of the head to provoke a motor response in the contralateral first dorsal interosseous. The current induced a flow in the posteroanterior direction. The rest motor threshold (RMT) was defined as the stimulus of minimum intensity capable of producing a motor evoked response at rest (of around 50 μV in 50% of the 10 attempts). The active motor threshold (AMTtms) was defined as the stimulus of minimum intensity capable of producing a motor evoked response (around 200 μV in 50% of the 10 attempts) during the isometric contraction of the muscle tested at approximately 20% of the maximum. A constant voluntary contraction level was maintained by electromyogram display oscilloscope placed in front of the subject.
In six subjects we also performed electric stimulation of the motor cortex during voluntary contraction. This was performed with a Digitimer D180A digital stimulator with a time constant of 50 μs. The cathode was placed in the vertex and the anode at 7 cm laterally (anodic stimulation). We evaluate the active electric motor threshold (AMTtes) defined as the stimulus of minimum intensity capable of producing a motor evoked response of around 200 μV in 50% of ten attempts during the voluntary contraction.

SMILES | effect on latency (Δ latency) in forced run (Male adult Wistar rats) | improvement in resistance to fatigue (decrease in latency) with respect to carrier (Male adult Wistar rats; 2 hours after fatigue) | improvement in resistance to fatigue (decrease in latency) with respect to carrier (Male adult Wistar rats; 24 hours after fatigue) | active motor threshold using transcranial magnetic stimulation (AMTtms), mean (healthy volunteers [1]; baseline 39±4%, P=0.0008) | resting motor threshold using transcranial magnetic stimulation (RMT), mean (healthy volunteers [1]; baseline 48±6%, P=0.0775 (not significant)) | active motor threshold using transcranial electric stimulation (AMTtes), mean (healthy volunteers [2]) | intracortical facilitation (ICF), mean (healthy volunteers [3]) | effect on latency (Δ latency) in forced run ([4]; 2 hours after injection compared with carriers, result in words) | improvement in resistance to fatigue (decrease in latency) with respect to carrier ([4]; 2 hours after fatigue) | improvement in resistance to fatigue (decrease in latency) with respect to carrier ([4]; 24 hours after fatigue) | duration of agitation and anxiety, average (healthy volunteers [5]; affected subjects) | effects on attention (healthy volunteers [5]; healthy volunteers) | subjects with agitation and anxiety (healthy volunteers [5]; nine healthy volunteers) | subjects with nauseas (healthy volunteers [5]; nine healthy volunteers, during 24 h)
Cc1c(C(=O)NN2CCOCC2)nn(-c2ccc(Cl)cc2Cl)c1-c1ccc(I)cc1 [AM281] | decreased latency | 185 s | 207 s | – | – | – | – | – | – | – | – | – | – | –
Cc1c(C(=O)NN2CCCCC2)nn(-c2ccc(Cl)cc2Cl)c1-c1ccc(Cl)cc1 [rimonabant, N-(piperidin-1-yl)-5-(4-chlorophenyl)-1-(2,4-dichlorophenyl)-4-methyl-1H-pyrazole-3-carboxamide] | decreased latency | 75 s | 125 s | 35.5±4% | 46.5±6% | 17.5±6% | 150±40% | decreased latency | 136 s | 200 s | 6 h | moderate | Three of the subjects experienced agitation and anxiety | one suffered nauseas
